Each block holds one compound with its values, some of them ahead of it.
Columns and labels:
[1] = tested on: transplanted rat glioma; conditions: Volkow et al. 1983, cited from earlier work
[2] = in vivo; conditions: mouse
Protocol: Male Swiss albino mice (BNL strain, 20-32 g) were used in this study. No-carrier-added [1-^11 C]putrescine (0.05-0.20 μCi/mouse of specific activity greater than 1.4 Ci/μmol; 36-140 pmol/mouse) was injected by tail vein into mice and the animals were killed by cervical dislocation at the desired time interval (5, 30 and 60 minutes). The various organs were rapidly removed, blotted free of blood and placed in preweighed counting vials and the vials were sealed. Tissue samples as well as injection standards were counted in a Packard automated sodium iodide well counter. Both percent injected dose per gram of tissue and percent injected dose per organ were determined from the decay corrected activity.

Compound: NCCCCN [putrescine]
- in vivo uptake into transplanted rat glioma relative to normal brain tissue ([1]; transplanted rat glioma vs normal brain tissue): 35 times greater
- metabolism to spermine by the tumor (in words) ([1]; transplanted rat glioma, in contrast to adjacent normal brain tissue): rapid

- tissue uptake at 5 min ([2]; iv): 1.37 ± 0.18 %ID/g
- tissue uptake at 0.5 h ([2]; iv): 0.82 ± 0.11 %ID/g
- tissue uptake at 1 h ([2]; iv): 0.76 ± 0.46 %ID/g
- Tissue distribution, Brain ([2]; iv, 5 min): 0.12 ± 0.01 % Dose/Organ
- Tissue distribution, Heart ([2]; iv, 5 min): 0.19 ± 0.04 % Dose/Organ
- Tissue distribution, Kidney ([2]; iv, 5 min): 10.5 ± 2.0 % Dose/Organ
- Tissue distribution, Liver ([2]; iv, 5 min): 5.96 ± 1.2 % Dose/Organ
- Tissue distribution, Lungs ([2]; iv, 5 min): 0.57 ± 0.08 % Dose/Organ
- Tissue distribution, Small Intestine ([2]; iv, 5 min): 13.7 ± 5.0 % Dose/Organ
- Tissue distribution, Spleen ([2]; iv, 5 min): 0.57 ± 0.35 % Dose/Organ
- Tissue distribution, Brain ([2]; iv, 30 min): 0.15 ± 0.01 % Dose/Organ
- Tissue distribution, Heart ([2]; iv, 30 min): 0.15 ± 0.02 % Dose/Organ
- Tissue distribution, Kidney ([2]; iv, 30 min): 2.63 ± 0.36 % Dose/Organ
- Tissue distribution, Liver ([2]; iv, 30 min): 4.85 ± 0.75 % Dose/Organ
- Tissue distribution, Lungs ([2]; iv, 30 min): 0.48 ± 0.08 % Dose/Organ
- Tissue distribution, Small Intestine ([2]; iv, 30 min): 7.61 ± 2.00 % Dose/Organ
- Tissue distribution, Spleen ([2]; iv, 30 min): 0.56 ± 0.25 % Dose/Organ
- Tissue distribution, Brain ([2]; iv, 60 min): 0.13 ± 0.01 % Dose/Organ
- Tissue distribution, Heart ([2]; iv, 60 min): 0.12 ± 0.01 % Dose/Organ
- Tissue distribution, Kidney ([2]; iv, 60 min): 1.27 ± 0.21 % Dose/Organ
- Tissue distribution, Liver ([2]; iv, 60 min): 3.70 ± 0.50 % Dose/Organ
- Tissue distribution, Lungs ([2]; iv, 60 min): 0.43 ± 0.08 % Dose/Organ
- Tissue distribution, Small Intestine ([2]; iv, 60 min): 4.40 ± 1.66 % Dose/Organ
- Tissue distribution, Spleen ([2]; iv, 60 min): 0.48 ± 0.16 % Dose/Organ
Compound: NCCC[11CH2]N [no-carrier-added [1-^11 C]putrescine, [1-^11 C]putrescine]
- accumulation of activity in normal brain compared with other tissues (in words) [2]: less in the normal brain than for other tissues
- tissues of main uptake (in words) [2]: taken up by the liver, kidneys, and small intestine

— US4874600A, “No-carrier-added [1^11 c]putrescine” (The United States of America as Represented by the United …, priority 1986, dated 1989)
